Reference: patent publication US20230077362A1 (CORTEVA AGRISCIENCE LLC, priority 2019, published 2023)
Where two headings read alike, the source gives them in different places.

What was measured:
[1] = system: Cabbage Looper (Trichoplusia ni) ("CL"), second instar larvae; experiment: Bioassay on cabbage looper (CL), 128-well diet tray assay; format: in vivo; conditions: for pest or weed control at 50 µg/cm2: Trichoplusia ni; for CL (Biological Results, rating): Cabbage Looper (Trichoplusia ni), C = Not Tested
How it was run: (§1)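 Second-instar larvae on diet in 128-well trays, covered and held at 25° C, 14:10 light-dark, for five to seven days. Percent mortality scored per well and averaged over eight wells; activity reported as a rating category.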

[2] = system: Beet Armyworm (Spodoptera exigua) ("BAW"), second instar larvae; experiment: Bioassay on beet armyworm (BAW), 128-well diet tray assay; format: in vivo; conditions: for pest or weed control at 50 µg/cm2: Spodoptera exigua; for BAW (Biological Results, rating): Beet Armyworm (Spodoptera exigua), C = Not Tested
How it was run: as §1

[3] = read-out: CL (Biological Results, rating)
[4] = read-out: BAW (Biological Results, rating)

Structure (SMILES) | pest or weed control at 50 µg/cm2 [1, 3] [%] | pest or weed control at 50 µg/cm2 [2, 4] [%] | CL (Biological Results, rating) [1] | BAW (Biological Results, rating) [2] | also measured
CC(C)c1ccc(N(C)C)cc1N1C(=O)CS/C1=N\C(=O)Nc1ccc(-c2ncn(-c3cccc(OC(F)(F)F)c3)n2)cc1 [Compound J329, (Z)-1-(3-(5-(Dimethylamino)-2-isopropylphenyl)-4-oxothiazolidin-2-ylidene)-3-(4-(1-(3-(trifluoromethoxy)phenyl)-1H-1,2,4-triazol-3-yl)phenyl)urea] | 50 to 100 | 50 to 100 |  |  | 
Cc1ccc(COCC(F)(F)F)c(N2C(=O)CS/C2=N\C(=O)Nc2ccc(-c3ncn(-c4ccc(OC(F)(F)F)cc4)n3)cc2)c1 [Compound J331, (Z)-1-(3-(5-Methyl-2-((2,2,2-trifluoroethoxy)methyl)phenyl)-4-oxothiazolidin-2-ylidene)-3-(4-(1-(4-(trifluoromethoxy)phenyl)-1H-1,2,4-triazol-3-yl)phenyl)urea] | 50 to 100 | 50 to 100 |  |  | 
Cc1ccc(COCC(F)(F)F)c(N2C(=O)CS/C2=N\C(=O)Nc2ccc(-c3ncn(-c4ccc(C(F)(F)F)cc4)n3)cc2)c1 [Compound J332, (Z)-1-(3-(5-Methyl-2-((2,2,2-trifluoroethoxy)methyl)phenyl)-4-oxothiazolidin-2-ylidene)-3-(4-(1-(4-(trifluoromethyl)phenyl)-1H-1,2,4-triazol-3-yl)phenyl)urea] | 50 to 100 | 50 to 100 |  |  | 
Cc1ccc(OCCC(F)(F)F)c(N2C(=O)CS/C2=N\C(=O)Nc2ccc(-c3ncn(-c4ccc(SC(F)(F)F)cc4)n3)cc2F)c1 [Compound J333, (Z)-1-(2-Fluoro-4-(1-(4-((trifluoromethyl)thio)phenyl)-1H-1,2,4-triazol-3-yl)phenyl)-3-(3-(5-methyl-2-(3,3,3-trifluoropropoxy)phenyl)-4-oxothiazolidin-2-ylidene)urea] | 50 to 100 | 50 to 100 |  |  | 
CC(C)c1ccc(N(C)C)cc1N1C(=O)CS/C1=N\C(=O)Nc1ccc(-c2ncn(-c3ccc(SC(F)(F)F)cc3)n2)cc1F [Compound J334, (Z)-1-(3-(5-(Dimethylamino)-2-isopropylphenyl)-4-oxothiazolidin-2-ylidene)-3-(2-fluoro-4-(1-(4-((trifluoromethyl)thio)phenyl)-1H-1,2,4-triazol-3-yl)phenyl)urea] | 50 to 100 | 50 to 100 |  |  | 
CC(C)c1ccc(N(C)C)cc1N1C(=O)CS/C1=N\C(=O)Nc1ccc(-c2ncn(-c3ccc(C(F)(F)F)cn3)n2)cc1F [Compound J336, (Z)-1-(3-(5-(Dimethylamino)-2-isopropylphenyl)-4-oxothiazolidin-2-ylidene)-3-(2-fluoro-4-(1-(5-(trifluoromethyl)pyridin-2-yl)-1H-1,2,4-triazol-3-yl)phenyl)urea] | 50 to 100 | 50 to 100 |  |  | 
Cc1ccc(C(C)C)c(N2C(=O)CS/C2=N\C(=O)Nc2ccc(-c3ncn(-c4ccc(C(F)(F)F)cn4)n3)cc2)c1 [Compound J337, (Z)-1-(3-(2-Isopropyl-5-methylphenyl)-4-oxothiazolidin-2-ylidene)-3-(4-(1-(5-(trifluoromethyl)pyridin-2-yl)-1H-1,2,4-triazol-3-yl)phenyl)urea] | 50 to 100 | 50 to 100 |  |  | 
COC(C)c1ccc(C)cc1N1C(=O)CS/C1=N\C(=O)Nc1ccc(-c2ncn(-c3ccc(C(F)(F)F)cn3)n2)cc1 (stereo not drawn) [Compound J338, (Z)-1-(3-(2-(1-Methoxyethyl)-5-methylphenyl)-4-oxothiazolidin-2-ylidene)-3-(4-(1-(5-(trifluoromethyl)pyridin-2-yl)-1H-1,2,4-triazol-3-yl)phenyl)urea] | 50 to 100 | 50 to 100 |  |  | 
CC(C)c1ccc(N(C)C)cc1N1C(=O)CS/C1=N\C(=O)Nc1ccc(-c2ncn(-c3ccc(C(F)(F)F)cn3)n2)cc1 [Compound J339] |  |  | A (50-100) | A (50-100) | 
COC(C)c1ccc(C)cc1N1C(=O)CS/C1=N\C(=O)Nc1ccc(-c2ncn(-c3ccc(OCC#N)cc3)n2)cc1F (stereo not drawn) [Compound J340, (Z)-1-(4-(1-(4-(Cyanomethoxy)phenyl)-1H-1,2,4-triazol-3-yl)-2-fluorophenyl)-3-(3-(2-(1-methoxyethyl)-5-methylphenyl)-4-oxothiazolidin-2-ylidene)urea] | 50 to 100 | 50 to 100 |  |  | 
COC(C)c1ccc(C)cc1N1C(=O)CS/C1=N\C(=O)Nc1ccc(-c2ncn(-c3ccc(C(F)F)cn3)n2)cc1F (stereo not drawn) [Compound J341] |  |  | A (50-100) | A (50-100) | 
CC(C)c1ccc(N(C)C)cc1N1C(=O)CS/C1=N\C(=O)Nc1ccc(-c2ncn(-c3ccc(OCC#N)cc3)n2)cc1F [Compound J342, (Z)-1-(4-(1-(4-(Cyanomethoxy)phenyl)-1H-1,2,4-triazol-3-yl)-2-fluorophenyl)-3-(3-(5-(dimethylamino)-2-isopropylphenyl)-4-oxothiazolidin-2-ylidene)urea] | 50 to 100 | 50 to 100 |  |  | 
Cc1ccc(COCC(F)(F)F)c(N2C(=O)CS/C2=N\C(=O)Nc2ccc(-c3ncn(-c4ccc(OCC#N)cc4)n3)cc2F)c1 [Compound J343, (Z)-1-(4-(1-(4-(Cyanomethoxy)phenyl)-1H-1,2,4-triazol-3-yl)-2-fluorophenyl)-3-(3-(5-methyl-2-((2,2,2-trifluoroethoxy)methyl)phenyl)-4-oxothiazolidin-2-ylidene)urea] | 50 to 100 | 50 to 100 |  |  | 
COCc1ccc(C)cc1N1C(=O)CS/C1=N\C(=O)Nc1ccc(-c2ncn(-c3ccc(C(F)F)cn3)n2)cc1F [Compound J345] |  |  | A (50-100) | A (50-100) | 
Cc1ccc(COCC(F)(F)F)c(N2C(=O)CS/C2=N\C(=O)Nc2ccc(-c3ncn(-c4ccc(C(F)F)cn4)n3)cc2F)c1 [Compound J346] |  |  | A (50-100) | A (50-100) | 
CC(C)c1ccc(N(C)C)cc1N1C(=O)CS/C1=N\C(=O)Nc1ccc(-c2ncn(-c3ccc(C(F)F)cn3)n2)cc1F [Compound J347] |  |  | A (50-100) | A (50-100) | 
CC(C)c1ccc(N(C)C)cc1N1C(=O)CS/C1=N\C(=O)Nc1ccc(-c2ccn(-c3ccc(C(F)(F)F)cn3)n2)cc1F [Compound J349] |  |  | A (50-100) | A (50-100) | 
CC(C)c1cc(F)c(N(C)C)cc1N1C(=O)CS/C1=N\C(=O)Nc1ccc(-c2ncn(-c3ccc(C(F)F)cn3)n2)cc1F [Compound J351] |  |  | A (50-100) | A (50-100) | 
CC(C)c1cc(F)c(N(C)C)cc1N1C(=O)CS/C1=N\C(=O)Nc1ccc(-c2ncn(-c3ccc(C(F)(F)F)cn3)n2)cc1F [Compound J352] |  |  | A (50-100) | A (50-100) | 
COC(c1ccc(C)cc1N1C(=O)CS/C1=N\C(=O)Nc1ccc(-c2ncn(-c3ccc(C(F)F)cn3)n2)cc1F)C(F)(F)F (stereo not drawn) [Compound J353] |  |  | A (50-100) | A (50-100) | 
CCOC(C)c1ccc(C)cc1N1C(=O)CS/C1=N\C(=O)Nc1ccc(-c2ncn(-c3ccc(C(F)F)cn3)n2)cc1F (stereo not drawn) [Compound J354] |  |  | A (50-100) | A (50-100) | 
COc1ccc(C(C)C)c(N2C(=O)CS/C2=N\C(=O)Nc2ccc(-c3ncn(-c4ccc(C(F)F)cn4)n3)cc2F)c1 [Compound J355] | 50 to 100 | 50 to 100 |  |  | 
Cc1cc(-c2ncn(-c3ccc(OCC#N)cc3)n2)ccc1NC(=O)/N=C1\SCC(=O)N1c1cc(N(C)C)ccc1C(C)C [Compound J357, (Z)-1-(4-(1-(4-(Cyanomethoxy)phenyl)-1H-1,2,4-triazol-3-yl)-2-methylphenyl)-3-(3-(5-(dimethylamino)-2-isopropylphenyl)-4-oxothiazolidin-2-ylidene)urea] |  |  |  |  | pest or weed control at 50 µg/cm2 ([1]; read-out: CL rating): 50 to 100%; pest or weed control at 50 µg/cm2 ([2]; read-out: BAW rating): 50 to 100%
COC(C)c1ccc(C)cc1N1C(=O)CS/C1=N\C(=O)Nc1ccc(-c2ncn(-c3ccc(OCC#N)cc3)n2)cc1C (stereo not drawn) [Compound J358, (Z)-1-(4-(1-(4-(Cyanomethoxy)phenyl)-1H-1,2,4-triazol-3-yl)-2-methylphenyl)-3-(3-(2-(1-methoxyethyl)-5-methylphenyl)-4-oxothiazolidin-2-ylidene)urea] |  |  |  |  | pest or weed control at 50 µg/cm2 ([1]; read-out: CL rating): 50 to 100%; pest or weed control at 50 µg/cm2 ([2]; read-out: BAW rating): 50 to 100%
Cc1ccc(COCC(F)(F)F)c(N2C(=O)CS/C2=N\C(=O)Nc2ccc(-c3ncn(-c4ccc(OCC#N)cc4)n3)cc2C)c1 [Compound J359, (Z)-1-(4-(1-(4-(Cyanomethoxy)phenyl)-1H-1,2,4-triazol-3-yl)-2-methylphenyl)-3-(3-(5-methyl-2-((2,2,2-trifluoroethoxy)methyl)phenyl)-4-oxothiazolidin-2-ylidene)urea] |  |  |  |  | pest or weed control at 50 µg/cm2 ([1]; read-out: CL rating): 50 to 100%; pest or weed control at 50 µg/cm2 ([2]; read-out: BAW rating): 50 to 100%
Cc1ccc(OCCC(F)(F)F)c(N2C(=O)CS/C2=N\C(=O)Nc2ccc(-c3ncn(-c4ccc(OCC#N)cc4)n3)cc2C)c1 [Compound J360, (Z)-1-(4-(1-(4-(Cyanomethoxy)phenyl)-1H-1,2,4-triazol-3-yl)-2-methylphenyl)-3-(3-(5-methyl-2-(3,3,3-trifluoropropoxy)phenyl)-4-oxothiazolidin-2-ylidene)urea] |  |  |  |  | pest or weed control at 50 µg/cm2 ([1]; read-out: CL rating): 50 to 100%; pest or weed control at 50 µg/cm2 ([2]; read-out: BAW rating): 50 to 100%
COC(C)c1ccc(C)cc1N1C(=O)CS/C1=N\C(=O)Nc1ccc(-c2ncn(-c3ccc(S(=O)(=O)C(F)(F)F)cc3)n2)cc1F (stereo not drawn) [Compound J361, (Z)-1-(2-Fluoro-4-(1-(4-((trifluoromethyl)sulfonyl)phenyl)-1H-1,2,4-triazol-3-yl)phenyl)-3-(3-(2-(1-methoxyethyl)-5-methylphenyl)-4-oxothiazolidin-2-ylidene)urea] |  |  |  |  | pest or weed control at 50 µg/cm2 ([1]; read-out: CL rating): 50 to 100%; pest or weed control at 50 µg/cm2 ([2]; read-out: BAW rating): 50 to 100%
